Source: patent publication US20230317203A1, “SCREENING METHOD” (University of Leeds, priority 2022, published 2023)

What was measured:
BRISC [1] = target: T1, BRISC (Homo sapiens, UniProt P46736+Q15018+Q9NXR7); experiment: BRISC-mediated tetraubiquitin chain cleavage by Western blotting; format: biochemical; design: made in house; host or cells: Spodoptera frugiperda (Sf9) insect cells; conditions: K63-linked Ub4, Western blot, FIG. 6B
Source text: The potency of these analogues was characterised in the IQF assay with a fluorescent di-ubiquitin substrate. […] We confirmed the ability of these inhibitors to block BRISC-mediated tetraubiquitin chain cleavage by Western blotting (FIG. 6B).

BRISC Abraxas2 Thr135Lys = BRISC Abraxas2 Thr135Lys (Homo sapiens, UniProt P46736+Q15018+Q9NXR7, T135K); experiment: IQF DUB assay, BRISC mutant Abraxas2 Thr135Lys; format: biochemical; conditions: FIG. 4B
Method: (§1) The four-subunit human BRISC (full-length (FL) and MERIT40ΔN, Abraxas2ΔC) complex was cloned using the MultiBac system and co-expressed in Spodoptera frugiperda (Sf9) insect cells^32. BRISC mutants were cloned into pFastBac vectors in the Bac-to-Bac system (ThermoFisher), baculoviruses generated in Sf9 cells and used for co-infection of Trichoplusia ni (Tni) cells. All BRISC complexes were purified as previously described^12,13.
(§2) BRISC complexes were tested for activity in DUB reaction buffer containing 50 mM HEPES-NaOH pH 7.0, 100 mM NaCl, 0.1 mg/mL BSA, 1 mM DTT, and 0.003% Brij-35. […] Inhibitors were assayed at concentrations up to 200 μM. […] DUB activity was measured using internally quenched fluorescent (IQF) K63-linked diUb (Lifesensors, catalogue number: DU6303) at 50 or 100 nM. Cleaved diUb was monitored by measuring fluorescence intensity (Ex. 540 nm, Em. 580 nm; dichroic mirror 560 nm). Fluorescence intensity was measured every minute for 30 minutes at 30° C. Fluorescence intensity units for the first 10 minutes were plotted against time to generate a linear reaction progress curve, where the initial velocity (v0) corresponds to the gradient of the curve. IC50 values were calculated using the GraphPad Prism (v8.0) built-in dose-response equation for inhibitor concentration vs. response (variable slope). […]

BRISC BRCC36 Leu169Ala = BRISC BRCC36 Leu169Ala (Homo sapiens, UniProt P46736+Q15018+Q9NXR7, L169A); experiment: IQF DUB assay, BRISC mutant BRCC36 Leu169Ala; format: biochemical; conditions: FIG. 4B
Method: as §1, §2

BRISC BRCC36 Arg167Ala = BRISC BRCC36 Arg167Ala (Homo sapiens, UniProt P46736+Q15018+Q9NXR7, R167A); experiment: IQF DUB assay, BRISC mutant BRCC36 Arg167Ala; format: biochemical; conditions: FIG. 4B
Method: as §1, §2

BRISC Abraxas2 Thr140Ala = BRISC Abraxas2 Thr140Ala (Homo sapiens, UniProt P46736+Q15018+Q9NXR7, T140A); experiment: IQF DUB assay, BRISC mutant Abraxas2 Thr140Ala; format: biochemical; conditions: FIG. 4B
Method: as §1, §2

BRISC [2] = experiment: Mass photometry of BRISC oligomeric state; format: binding, human; conditions: mass photometry
Method: (§3) Microscope coverslips were prepared as previously described^33. All mass photometry experiments were performed using a One^MP mass photometer (Refeyn Ltd, Oxford, UK). For preliminary BRISC-inhibitor measurements, 1 μM BRISC(FL) was mixed with either DMSO or inhibitor at 330 μM and incubated for 15 minutes on ice. Prior to MP measurement, the BRISC-inhibitor mix was diluted in gel filtration buffer (25 mM HEPES, 150 mM NaCl, 1 mM TCEP) for a final concentration of BRISC at 10 nM (0.05% DMSO). 12 μL of this dilution was used for the final MP measurement, following autofocus stabilisation. […] The BRISC-inhibitor mix was used directly for MP measurement using buffer-free autofocus stabilisation. Movies were recorded for 60 seconds using AcquireMP (Refeyn, UK), and were processed using DiscoverMP (Refeyn, UK). Mass photometry image processing has been previously described^33. Briefly, contrast-to-mass (C2M) calibration was performed using protein standards (66-669 kDa) diluted in gel filtration buffer. […] The mass distribution from each run is in a histogram, where count refers to each landing event and a Gaussian sum is fitted to the data. The relative amount of each species is calculated as the area of each Gaussian, where a refers to the standard deviation of the fitted Gaussian. […] Curves were fitted and EC50 values were calculated using the GraphPad Prism (v8.0) built-in dose-response equation for concentration of agonist vs. response (variable slope).

BRISC [3] = target: T1, BRISC; experiment: Mass photometry of BRISC oligomeric state; format: binding; conditions: purified BRISC mixed with inhibitor, FIG. 2B
Method: as §3

BRISC BRCC45 mutants = experiment: IQF DUB assay, BRISC BRCC45 mutants; format: biochemical, human; conditions: four BRCC45 residues mutated, FIG. 4B
Method: as §1, §2

- inhibition of tetraubiquitin chain cleavage (BRISC [1]): Dose-dependent inhibition
- inhibitor sensitivity of mutant (BRISC Abraxas2 Thr135Lys): no effect on inhibitor sensitivity
- inhibitor sensitivity of mutant (BRISC BRCC36 Leu169Ala): severely affected
- inhibitor sensitivity of mutant (BRISC BRCC36 Arg167Ala): remained inhibitor sensitive
- IC50 higher than BRISC WT (BRISC Abraxas2 Thr140Ala): 10 fold
- mass photometry counts, 1:1:1:1 complex (BRISC [3]): 13%
- mass photometry counts, dimer (BRISC [3]): 52%
SMILES: O=C(NC1C2CNCC21)c1nn(C(=O)c2c(Cl)cccc2Cl)cc1NC(=O)c1c(Cl)cccc1Cl (stereo not drawn) [FX-171-C]
- dimer formation at increasing inhibitor concentration (BRISC [2]): dose-dependent increase in dimer formation
- ability to recognise the inhibitor (BRISC BRCC45 mutants): reduced
